ChEMBL document CHEMBL1134846, “Substituted pyrazolopyridines as potent and selective PDE5 inhibitors: potential agents for treatment of erectile dysfunction” (J Med Chem, 2001)

How the values were obtained:
[1] = target: T1, cGMP-specific 3',5'-cyclic phosphodiesterase (Homo sapiens, UniProt O76074); assay: Inhibition of PDE5 of human platelets
[2] = Selectivity for PDE5 of human platelets over PDE6 of bovine retina
[3] = Selectivity for PDE5 of human platelets over PDE1 of bovine heart
[4] = Selectivity for PDE5 of human platelets over PDE4 of rat kidney
[5] = Selectivity for PDE5 of human platelets over PDE2 of rat kidney
[6] = Bioavailability was determined in dogs after a dose of 23 uM/kg.; type: ADME, organism-based, Canis lupus familiaris; settings: dog, in vivo
[7] = target: T1, cGMP-specific 3',5'-cyclic phosphodiesterase; assay: Relaxant effect on rabbit corpus cavernosal tissue strips; type: tissue-based, Oryctolagus cuniculus, Corpus cavernosum; settings: target entry is the homologue from another species
[8] = Half life was determined in male rats after a dose of 21 uM/kg.; type: ADME, organism-based; settings: rat, in vivo
[9] = Half life was determined in dogs after a dose of 23 uM/kg.; type: ADME, organism-based, Canis lupus familiaris; settings: dog, in vivo
[10] = Bioavailability was determined in male rats after a dose of 21 uM/kg.; type: ADME, organism-based; settings: rat, in vivo
[11] = Bioavailability was determined in male rats.; type: ADME, organism-based; settings: rat, in vivo
[12] = Half life was determined in dogs; type: ADME, organism-based, Canis lupus familiaris; settings: dog, in vivo
[13] = Bioavailability was determined in dogs.; type: ADME, organism-based, Canis lupus familiaris; settings: dog, in vivo
[14] = Half life was determined in male rats.; type: ADME, organism-based; settings: rat, in vivo

| Structure (SMILES) | IC50 [1] [nM] | IC50 ratio [2] | IC50 ratio [3] | IC50 ratio [4] | IC50 ratio [5] | also measured |
| --- | --- | --- | --- | --- | --- | --- |
| CCn1ncc2c(N[C@@H](C)C3CCCCC3)c3cc(C#N)ccc3nc21 | 1 |  |  |  |  |  |
| CCn1ncc2c(NCc3ccc(OC)c(Cl)c3)c(C(=O)NC[C@@H]3CCCO3)cnc21 | 1.8 | 22 | 2500 | 760 | 8000 |  |
| CCn1ncc2c(NCc3ccc(OC)c(Cl)c3)c(C(=O)NCc3ccncc3)cnc21 | 0.8 | 47 | 6400 | 600 | 9200 | bioavailability [6]: 66%; EC50 [7]: 44 nM; half-life [8]: 1.2 h; half-life [9]: 2.3 h; bioavailability [10]: 33% |
| CCn1ncc2c(NCc3ccc(OC)c(Cl)c3)c(C(=O)NCCCN3CCCC3=O)cnc21 | 1.6 | 19 | 2900 | 460 | 3000 |  |
| CCn1ncc2c(NCc3ccc(OC)c(Cl)c3)c(C(=O)O)cnc21 | 38 |  |  |  |  |  |
| CCCCNc1c(C(=O)OCC)cnc2c1cnn2CC [CARTAZOLATE] | 180 | 2 | 43 | 1 | 45 |  |
| CCn1ncc2c(NCc3ccc(OC)c(Cl)c3)c(C(=O)NCCCCCO)cnc21 | 1.4 | 35 | 2700 | 340 | 5200 |  |
| CCCc1nn(C)c2c(=O)[nH]c(-c3cc(S(=O)(=O)N4CCN(C)CC4)ccc3OCC)nc12 |  |  |  |  |  | bioavailability [11]: 15%; half-life [12]: 5.2 h; bioavailability [13]: 54%; half-life [14]: 0.3 h |
